Test results reported in patent publication US10752612B2, “PLK4 inhibitors” (LUDWIG INSTITUTE FOR CANCER RESEARCH LTD, priority 2015, dated 2020).

Tests used:
p53 = experiment: Western blotting, RPE1; assay type: cell-based, human
Method: Western blotting. […] Cell extracts were stored at −80° C. until use.
For p53, p-p53(S33), p-p53(S392), p-p38(T180/Y182), acetyl-p53(K382), LATS2, YAP, MDM2, MAPKAPK-2 and GFP, blocking and antibody incubations were performed in TBS-T+5% non-fat dry milk. For p-YAP(S127), p-p53(S9), p-p53(S15), p-p53(S20), p-p53(S37), p-p53(S315), p21 and p-MAPKAPK-2(T334), blocking and antibody incubations were performed in TBS-T+5% BSA. Detection was performed using HRP-conjugated secondary antibodies (GE Healthcare) with WesternBright Sirius (Advansta) or SuperSignal West Femto (Thermo Scientific) substrates. Membranes were imaged on a ChemiDoc MP system (Bio-Rad). Membranes were stripped and reprobed with antibodies against α-tubulin or GAPDH as loading controls.

RPE1 cells = experiment: Passaging assay and flow cytometry, RPE1; assay type: cell-based, human; settings: RPE1, addition Day 0, washout Day 8
Method: Passaging assays. Cells were seeded into 10 cm tissue culture plates at 150,000 (HeLa, NIH/3T3 and RPE1) or 200,000 cells/plate (primary fibroblasts). Compounds were added at the indicated concentrations. At 4-day intervals, cells were harvested, counted using a TC10 cell counter, and re-seeded into new plates at the densities above. Results are from 2 independent experiments.
Flow cytometry. Cells were seeded into 15 cm tissue culture plates such that each plate was 50-80% confluent at the time of harvesting. Cells were de-adhered by trypsinization and pelleted in 15 ml tubes by centrifugation. Each pellet was resuspended in 0.3 mL PBS, and 0.7 mL ice-cold 100% ethanol was added to the tube while gently vortexing. Fixed cells were stored at 4° C. for up to 2 weeks. For DNA content analysis, fixed cells were pelleted, washed twice with PBS, and resuspended in 0.5 mL PBS+2% BSA and Alexa488-conjugated anti-p-H3(Ser10) antibody. Samples were incubated for 1 hour at 4° C., then washed twice with PBS+2% BSA. Pellets were resuspended in 1 mL PBS+2% BSA, 10 μg/ml propidium iodide (Sigma-Aldrich), 500 µg/ml RNAse A (Thermo Scientific). Samples were incubated at 37° C. for 30 minutes, then transferred to 12×75 mm tubes for analysis. Data were acquired using FACSDiva software on a LSR II flow cytometer (BD Biosciences). 50,000 cells were analyzed per condition. Cell cycle fitting was performed using ModFit LT (Verity Software House).

**Q.** Which p53 levels (p53) does the source give for `CCOc1cc(C(C)(C)C)ccc1C1=N[C@@](C)(c2ccc(Cl)cc2)[C@@](C)(c2ccc(Cl)cc2)N1C(=O)N1CCN(CCCS(C)(=O)=O)CC1` [R7112] here?
**A.** Its p53 levels is “raised p53 levels”.

**Q.** What about the proliferation after washout (RPE1 cells) of the same compound?
**A.** Its proliferation after washout is “led to resumption of proliferation”.
